# pIC50: −log10 of the molar value. In the oligonucleotide strings, read from the 5' end, every base follows the letter of its sugar. An asterisk marks phosphorothioate; unmarked linkages are phosphodiester. Other units and linkages are bracketed, terminal groups are in braces. A string of capitals states the bases alone. [5'S-Me-N] = (S)-5'-C-methyl nucleoside (N: the base); d = 2'-deoxy (DNA); r = 2'-OH (RNA)
# Legend:
# [1] = test system: phosphodiesterase II; assay: Stability toward 5′-specific exonuclease (phosphodiesterase II); assay type: in vitro ADME; conditions: oligo 0.1 mg/mL, 50 mM NaOAc (pH 6.5), 10 mM MgCl2; for Half-lives (T1/2), ty2: Phosphodiesterase-II 500 mU/mL; for Half-lives (T1/2), t12: reduced Phosphodiesterase-II concentration 100 mU/mL
# Procedure: Stability of modified oligonucleotides toward 3′- or 5′-specific exonucleases: Oligonucleotides were prepared in a final concentration of 0.1 mg/mL in either 50 mM Tris (pH 7.2), 10 mM MgCl2 or 50 mM sodium acetate (pH 6.5), 10 mM MgCl2 for assessing the stability towards 3′- or 5′-specific exonucleases, respectively. The exonuclease (150 mU/mL SVPDE for 3′-stability or 500 mU/mL phosphodiesterase II for 5′-stability) was added immediately prior to analysis via IEX HPLC (dionex DNAPac PA200, 4×250 mm) using a gradient of 37-52% mobile phase (1 M NaBr, 20 mM sodium phosphate, pH 11, 15% MeCN; stationary phase: 20 mM sodium phosphate, 15% MeCN, pH 11) over 7.5 min with a flow of 1 mL/min. Samples were analyzed at given time points for up to 24 h. The quantity of full length oligonucleotides was determined as the area under the curve at A260. Percent full length oligonucleotides was calculated by dividing by the area under the curve at t=0 and multiplying by 100. Activity of enzyme was verified for each experiment by including a oligodeoxythymidylate with a terminal phosphorothioate linkage (5′-T19·T (SEQ ID NO: 708) or 5′-T·T19 (SEQ ID NO: 708) for 3′- or 5′-exonuclease activity, respectively). Each aliquot of enzyme was thawed just prior to the experiment. The half-life was determined by fitting to first order kinetics.
# 5′-Nuclease Stability:_To evaluate the 5′-exonuclease stability of enantiomerically pure (R)- and (S)-5′-C-methyl (C5′-Me) Guanosine substituted nucleosides a dT20 template sequence (“dT20” disclosed as SEQ ID NO: 1) was modified at the 5′-end with one modified nucleotide via PO or PS linkages (Table 13). The structures of the compounds are shown below with guanosine for comparison.
# A dT20 template (“dT20” disclosed as SEQ ID NO: 1) having 5′end dT with PS linkages and 5′end Guanosine (G) with either PO or PS linkages were used as the control. ONs were incubated with Phosphodiesterase-II (500 mU/mL), and the half-life (T½) of each modified ON was determined by HPLC-based quantification of the full-length ON as a function of time. The results are summarized in Table 13 and HPLC stability profiles are depicted in FIGS. 24A and 24B showing decay curve of dT20 (SEQ ID NO: 1) modified at the 5′ end with Guanosine and (R) or (S)-5′-C-methyl Guanosine (C5′-MeG) with PO or PS linkages upon incubation with 5′ exonucleases-phosphodiesterase-II as a function of time. FIG. 24A is for the following conditions: a) enzyme conc. 500 mU/mL, Oligo Conc. 0.1 mg/mL, 50 mM NaOAc (pH-6.5):10 Mm MgCl2. FIG. 24B is for the following conditions: enzyme conc. 100 mU/mL, Oligo Conc. 0.1 mg/mL, 50 mM NaOAc (pH-6.5):10 mM MgCl2. The percentage full length ON is calculated by dividing the area under the peak corresponding to full length ON at a given time point by the full length at t=0 and multiplied by 100.
# Stability of modified oligonucleotides toward 3′- or 5′-specific exonucleases: Modified oligonucleotides were prepared in a final concentration of 0.1 mg/mL in either 300 mM Tris (pH 7.2), 60 mM MgCl2 or 300 mM sodium acetate (pH 6.5), 60 mM MgCl2 for assessing the stability towards 3′- or 5′-specific exonucleases, respectively. […] Samples were analyzed at given time points for up to 24 h. The quantity of full length oligonucleotides was determined as the area under the curve at A260. Percent full length oligonucleotides was calculated by dividing by the area under the curve at t=0 and multiplying by 100. […]
# [2] = test system: luciferase reporter plasmids (psiCHECK2, Renilla luciferase fused to target sequence); assay: Off-target Dual-Glo luciferase reporter assay in COS-7 cells; assay type: cell-based; conditions: luciferase reporter plasmids co-transfected with siRNAs into COS-7 cells
# Procedure: Dual-Glo® Luciferase assay: Cos7 cells (ATCC, Manassas, VA) were grown to near confluence at 37° C. in an atmosphere of 5% CO2 in DMEM (ATCC) supplemented with 10% FBS, before being released from the plate by trypsinization. siRNA and psiCHCECK2 plasmid transfection was carried out by adding 5 μL of siRNA duplexes and 5 μL of psiCHECK2 plasmid per well along with 5 μL of Opti-MEM plus 0.1 μL of Lipofectamine 2000 per well (Invitrogen, Carlsbad CA. cat #13778-150) and then incubated at room temperature for 15 minutes. The mixture was then added to the cells which were re-suspended in 35 ul of fresh complete media. The transfected cells were incubated at 37° C. in an atmosphere of 5% CO2.
# 48 hours after the siRNAs and psiCHECK2 plasmid were transfected; Firefly (transfection control) and Renilla (fused to target sequence) luciferase were measured. First, media was removed from cells. Then Firefly luciferase activity was measured by adding 20 μL of Dual-Glo® Luciferase Reagent equal to the culture medium volume to each well and mix. The mixture was incubated at room temperature for 30 minutes before luminescence (500 nm) was measured on a Spectramax (Molecular Devices) to detect the Firefly luciferase signal. Renilla luciferase activity was measured by adding 20 μL of room temperature of Dual-Glo® Stop & Glo® Reagent was added to each well and the plates were incubated for 10-15 minutes before luminescence was again measured to determine the Renilla luciferase signal. The Dual-Glo® Stop & Glo® Reagent, quenches the firefly luciferase signal and sustained luminescence for the Renilla luciferase reaction. siRNA activity was determined by normalizing the Renilla signal to the Firefly (control) signal within each well. The magnitude of siRNA activity was then assessed relative to cells that were transfected with the same vector but were not treated with siRNA or were treated with a non-targeting siRNA. All transfections were done at n=2 or greater.
# [3] = test system: TTR; assay: In vitro on-target activity, primary mouse hepatocytes, transfection, RT-qPCR (TTR siRNAs); assay type: cell-based
# Procedure: Cell culture and transfections: Primary Mouse Hepatocytes (Thermo Fisher Scientific/Gibco) were transfected by adding 4.9 μL of Opti-MEM plus 0.1 μL of Lipofectamine RNAiMax per well (Invitrogen, cat #13778-150) to 5 μL of siRNA duplexes per well into a 384-well plate and incubated at room temperature for 15 minutes. 40 μL of Dulbecco's Modified Eagle Medium (Hep3b) or William's Medium (PMH) containing ˜5 ×10^3 cells were then added to the siRNA mixture. Cells were incubated for 24 hours at 37° C. and then processed for RNA purification. Experiments were performed at 10 nM and 0.1 nM doses of siRNA.
# Total RNA isolation using DYNABEADS mRNA Isolation Kit: RNA was isolated using an automated protocol on a BioTek-EL406 platform using DYNABEADs (Invitrogen, cat #61012). Briefly, 70 μL of Lysis/Binding Buffer and 10 μL of lysis buffer containing 3 μL of magnetic beads were added to each well. Plates were incubated on an electromagnetic shaker for 10 minutes at room temperature and then magnetic beads were captured and the supernatant was removed. Bead-bound RNA was then washed 2 times with 150 μL Wash Buffer A and once with Wash Buffer B. Beads were then washed with 150 μL Elution Buffer, re-captured and supernatant removed.
# cDNA synthesis using ABI High capacity cDNA reverse transcription kit (Applied Biosystems, cat #4368813): 12 μL of a master mix containing 1.2 μL 10× Buffer, 0.48 μL 25× dNTPs, 1.2 μL 10× Random primers, 0.6 μL Reverse Transcriptase, 0.6 μL RNase inhibitor and 7.92 μL of H2O per reaction was added to RNA isolated above. Plates were sealed, mixed, and incubated on an electromagnetic shaker for 10 minutes at room temperature, followed by 2 h 37° C.
# Real time PCR: 2 μL of cDNA were added to a master mix containing 2 μL water, 0.5 μL of either an appropriate GAPDH TaqMan VIC Probe or the target probe and 5 μL Lightcycler 480 probe master mix (Roche, cat #04887301001) per well in a 384 well plate (Roche, cat #04887301001). Real time PCR was done in a LightCycler480 Real Time PCR system (Roche). Each duplex was tested in quadruplicate and data were normalized to cells transfected with a non-targeting control siRNA. To calculate relative fold change, real time data were analyzed using the ΔΔCt method and normalized to assays performed with cells transfected with a non-targeting control siRNA.
# RT qPCR for Ttr mRNA quantification:_Primary mouse hepatocytes (PMH) were cultured in Williams E Medium with 10% fetal bovine serum. Transfection of cells using RNAiMAX reagent was done as per the manufacturer's recommended protocol. Thus, cells were thawed immediately prior to transfection and then plated onto 384-well plates with a seed density of ˜5000 cells/well. Pre-incubated lipid/siRNA complex (0.1 μL RNAiMax, siRNA, in 5 μL Opti-MEM for 15 min) was added to a 384-well collagen-coated plate (BioCoat; Corning) and cells were incubated for 20 h at 37° C. in an atmosphere of 5% CO2. Eight 6-fold serial dilutions ranging from 10 to 0.036 nM were used to perform dose response experiments. Media was removed before washing and lysing the cells. Using Dynabeads mRNA isolation kit according to manufacturer's protocol, RNA was extracted and subsequently reverse-transcribed with the ABI high capacity cDNA reverse transcription kit. Quantification was done by real-time PCR, whereby the cDNA (2 μL) was added to a master mix that contained 0.5 μL mouse Gapdh TaqMan Probe, 0.5 μL Ttr TaqMan probes, and 5 μL Lightcycler 480 probe master mix per well in a 384-well 50 plate. Real-time PCR was accomplished in an ABI 7900HT RT-PCR system using the ΔΔCt (RQ) assay. Each duplex and concentration was tested in four biological replicates. To calculate relative fold change, real time data were analyzed using the ΔΔCt method and normalized to assays performed with cells transfected with 10 nM nonspecific siRNA. IC50 values were calculated using a 4-parameter fit model using XLFit.
# [4] = Rat toxicity study, clinical pathology parameters; conditions: rats, single subcutaneous dose 30 mg/kg, cohort average
substance,measurement,setting,value
"GpodT19: G(dT)19, 5′ guanosine, PO linkage (DNA rGdTdTdTdTdTdTdTdTdTdTdTdTdTdTdTdTdTdTdT)","Half-lives (T1/2), ty2",[1],<1 h
same,"Half-lives (T1/2), t12",[1],<1 h
"GpsdT19: Gs(dT)19, 5′ guanosine, PS linkage (DNA rG*dTdTdTdTdTdTdTdTdTdTdTdTdTdTdTdTdTdTdT)","Half-lives (T1/2), ty2",[1],41 h
"Parent (AD-125773): TTR siRNA; passenger u•u•cuugCuCUAuaaaccgugu(L), guide a•C•acgguuuauagAgCaagaa•c•a (sense CUUGCUCUAUAAACCGUGU; antisense ACGGUUUAUAGAGCAAGAA; phosphorothioate ends, overhangs, chemistry not fully specified)",pIC50,"[2]; TTR-4, modification at antisense position 7",8.92
same,pIC50,"[3]; TTR-4, modification at antisense position 7, primary mouse hepatocytes",9.87
"Parent (AD-64958): TTR siRNA; passenger a•a•caguGuUCUugcucuauaa(L), guide u•U•auaGagcaagaAcAcuguu•u•u (sense CAGUGUUCUUGCUCUAUAA; antisense AUAGAGCAAGAACACUGUU; phosphorothioate ends, overhangs, chemistry not fully specified)",A/G Avg.,[4],1.3
same,ALB Avg.,[4],2.9 g/dL
same,ALP Avg.,[4],427 U/L
same,ALT Avg.,[4],108 U/L
same,AST Avg.,[4],332 U/L
same,BILI Avg.,[4],0.48 mg/dL
same,CA Avg.,[4],9.9 mg/dL
same,CHOL Avg.,[4],43 mg/dL
same,CREAT Avg.,[4],0.21 mg/dL
same,GLDH Avg.,[4],140.8 U/L
same,GLOB Avg.,[4],2.27 g/dL
same,GLUC Avg.,[4],124 mg/dL
same,K Avg.,[4],4.9 mmol/L
same,NA Avg.,[4],140 mmol/L
same,PHOS Avg.,[4],9.0 mg/dL
same,PROT Avg.,[4],5 g/dL
same,TRIG Avg.,[4],51 mg/dL
same,UREAN Avg.,[4],18.6 mg/dL
same,pIC50,[2]; TTR (Seq 2),10.30
same,On-Target mRNA remaining (%) 0.1 nM siRNA,"[3]; TTR (Seq 2), primary mouse hepatocytes, 0.1 nM siRNA",25.5%
same,On-Target mRNA remaining (%) 10 nM siRNA,"[3]; TTR (Seq 2), primary mouse hepatocytes, 10 nM siRNA",2.3%
"SpodT19: (G5m)(dT)19, 5′-end (S)-5′-C-methyl guanosine, PO linkage ([5'S-Me-G]dTdTdTdTdTdTdTdTdTdTdTdTdTdTdTdTdTdTdT)","Half-lives (T1/2), ty2",[1],<1 h
same,"Half-lives (T1/2), t12",[1],<1 h

# From US20250207131A1, “MODIFIED RNA AGENTS WITH REDUCED OFF-TARGET EFFECT” (Alnylam Pharmaceuticals, Inc., priority 2018, published 2025)
